{"source": "patent US5530126A", "about": "“Process for the preparation of substituted 6-(pyrazol-3yl)-1,4-benzoxazin-3-ones” (Monsanto Company, priority 1994, dated 1996)", "assay_type_in_all_cases": "in vivo", "key": {"Annual bluegrass [1]": {"tested_on": "Annual bluegrass", "test": "Pre-emergence herbicide test", "settings": "1.12 kg/ha, read-out: % plant inhibition (Anbg)", "how_it_was_run": "(§1)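 Percent growth inhibition was rated roughly 10-14 days after treatment. Test compound, dissolved or suspended in acetone or water, had been applied to seeds placed on compacted topsoil, which was then covered with untreated soil and kept in the greenhouse.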"}, "Barnyardgrass [2]": {"tested_on": "Barnyardgrass", "test": "Pre-emergence herbicide test", "settings": "Echinochloa crus-galli, 1.12 kg/ha, read-out: % plant inhibition (Bygr)", "how_it_was_run": "as §1"}, "Cocklebur [3]": {"tested_on": "Cocklebur", "test": "Pre-emergence herbicide test", "settings": "Xanthium strumarium, 1.12 kg/ha, read-out: % plant inhibition (Cobu)", "how_it_was_run": "as §1"}, "Downy Brome [4]": {"tested_on": "Downy Brome", "test": "Pre-emergence herbicide test", "settings": "Bromus tectorum, 1.12 kg/ha, read-out: % plant inhibition (Dobr)", "how_it_was_run": "as §1"}, "Indian Mustard [5]": {"tested_on": "Indian Mustard", "test": "Pre-emergence herbicide test", "settings": "Brassica juncea, 1.12 kg/ha, read-out: % plant inhibition (Inmu)", "how_it_was_run": "as §1"}, "Morningglory [6]": {"tested_on": "Morningglory", "test": "Pre-emergence herbicide test", "settings": "Ipomoea, 1.12 kg/ha, read-out: % plant inhibition (Mogl)", "how_it_was_run": "as §1"}, "Seedling johnsongrass [7]": {"tested_on": "Seedling johnsongrass", "test": "Pre-emergence herbicide test", "settings": "Sorghum halepense, 1.12 kg/ha, read-out: % plant inhibition (Sejg)", "how_it_was_run": "as §1"}, "Velvetleaf [8]": {"tested_on": "Velvetleaf", "test": "Pre-emergence herbicide test", "settings": "Abutilon theophrasti, 1.12 kg/ha, read-out: % plant inhibition (Vele)", "how_it_was_run": "as §1"}, "Wild buckwheat [9]": {"tested_on": "Wild buckwheat", "test": "Pre-emergence herbicide test", "settings": "Fallopia convolvulus, 1.12 kg/ha, read-out: % plant inhibition (Wibw)", "how_it_was_run": "as §1"}, "Yellow nutsedge [10]": {"tested_on": "Yellow nutsedge", "test": "Pre-emergence herbicide test", "settings": "Cyperus, 1.12 kg/ha, read-out: % plant inhibition (Yens)", "how_it_was_run": "as §1"}, "Annual bluegrass [11]": {"tested_on": "Annual bluegrass", "test": "Post-emergence herbicide test", "settings": "1.12 kg/ha, read-out: % plant inhibition (Anbg)", "how_it_was_run": "(§2)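 Injury scored as percent inhibition against untreated control, usually at 11 days and occasionally at 25 days post-treatment. Greenhouse plants (2–3 weeks) received an atomized spray (~0.4% emulsifier, 1870 L/Ha, 10 psig).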"}, "Barnyardgrass [12]": {"tested_on": "Barnyardgrass", "test": "Post-emergence herbicide test", "settings": "Echinochloa crus-galli, 1.12 kg/ha, read-out: % plant inhibition (Bygr)", "how_it_was_run": "as §2"}, "Cocklebur [13]": {"tested_on": "Cocklebur", "test": "Post-emergence herbicide test", "settings": "Xanthium strumarium, 1.12 kg/ha, read-out: % plant inhibition (Cobu)", "how_it_was_run": "as §2"}, "Downy Brome [14]": {"tested_on": "Downy Brome", "test": "Post-emergence herbicide test", "settings": "Bromus tectorum, 1.12 kg/ha, read-out: % plant inhibition (Dobr)", "how_it_was_run": "as §2"}, "Indian Mustard [15]": {"tested_on": "Indian Mustard", "test": "Post-emergence herbicide test", "settings": "Brassica juncea, 1.12 kg/ha, read-out: % plant inhibition (Inmu)", "how_it_was_run": "as §2"}, "Morningglory [16]": {"tested_on": "Morningglory", "test": "Post-emergence herbicide test", "settings": "Ipomoea, 1.12 kg/ha, read-out: % plant inhibition (Mogl)", "how_it_was_run": "as §2"}, "Seedling johnsongrass [17]": {"tested_on": "Seedling johnsongrass", "test": "Post-emergence herbicide test", "settings": "Sorghum halepense, 1.12 kg/ha, read-out: % plant inhibition (Sejg)", "how_it_was_run": "as §2"}, "Velvetleaf [18]": {"tested_on": "Velvetleaf", "test": "Post-emergence herbicide test", "settings": "Abutilon theophrasti, 1.12 kg/ha, read-out: % plant inhibition (Vele)", "how_it_was_run": "as §2"}, "Wild buckwheat [19]": {"tested_on": "Wild buckwheat", "test": "Post-emergence herbicide test", "settings": "Fallopia convolvulus, 1.12 kg/ha, read-out: % plant inhibition (Wibw)", "how_it_was_run": "as §2"}, "Yellow nutsedge [20]": {"tested_on": "Yellow nutsedge", "test": "Post-emergence herbicide test", "settings": "Cyperus, 1.12 kg/ha, read-out: % plant inhibition (Yens)", "how_it_was_run": "as §2"}, "[21]": {"tested_on": "resistant broadleaf weeds such as pigweed, cocklebur, velvetleaf and hemp sesbania", "test": "Control of resistant broadleaf weeds in crops", "settings": "in various crops such as corn, soybean and nuts and in forestry"}}, "data": [{"smiles": "COC(=O)C(C)OC(=O)c1cc(-c2nn(C)c(C(F)(F)F)c2Cl)c(F)cc1Cl", "note": "(stereo not drawn) [Compound 137, 2-Chloro-5-(4-chloro-1-methyl-5-(trifluoromethyl)-1H-pyrazol-3-yl)-4-fluorobenzoic acid, 2-methoxy-1-methyl-2-oxoethyl ester]", "values": [{"measurement": "inhibition at 1120 g/ha", "setting": "Annual bluegrass [1]", "result": 70, "unit": "%"}, {"measurement": "inhibition at 1120 g/ha", "setting": "Barnyardgrass [2]", "result": 70, "unit": "%"}, {"measurement": "inhibition at 1120 g/ha", "setting": "Cocklebur [3]", "result": 100, "unit": "%"}, {"measurement": "inhibition at 1120 g/ha", "setting": "Downy Brome [4]", "result": 80, "unit": "%"}, {"measurement": "inhibition at 1120 g/ha", "setting": "Indian Mustard [5]", "result": 100, "unit": "%"}, {"measurement": "inhibition at 1120 g/ha", "setting": "Morningglory [6]", "result": 100, "unit": "%"}, {"measurement": "inhibition at 1120 g/ha", "setting": "Seedling johnsongrass [7]", "result": 50, "unit": "%"}, {"measurement": "inhibition at 1120 g/ha", "setting": "Velvetleaf [8]", "result": 100, "unit": "%"}, {"measurement": "inhibition at 1120 g/ha", "setting": "Wild buckwheat [9]", "result": 90, "unit": "%"}, {"measurement": "inhibition at 1120 g/ha", "setting": "Yellow nutsedge [10]", "result": 20, "unit": "%"}, {"measurement": "inhibition at 1120 g/ha", "setting": "Annual bluegrass [11]", "result": 100, "unit": "%"}, {"measurement": "inhibition at 1120 g/ha", "setting": "Barnyardgrass [12]", "result": 100, "unit": "%"}, {"measurement": "inhibition at 1120 g/ha", "setting": "Cocklebur [13]", "result": 100, "unit": "%"}, {"measurement": "inhibition at 1120 g/ha", "setting": "Downy Brome [14]", "result": 100, "unit": "%"}, {"measurement": "inhibition at 1120 g/ha", "setting": "Indian Mustard [15]", "result": 100, "unit": "%"}, {"measurement": "inhibition at 1120 g/ha", "setting": "Morningglory [16]", "result": 100, "unit": "%"}, {"measurement": "inhibition at 1120 g/ha", "setting": "Seedling johnsongrass [17]", "result": 100, "unit": "%"}, {"measurement": "inhibition at 1120 g/ha", "setting": "Velvetleaf [18]", "result": 100, "unit": "%"}, {"measurement": "inhibition at 1120 g/ha", "setting": "Wild buckwheat [19]", "result": 100, "unit": "%"}, {"measurement": "inhibition at 1120 g/ha", "setting": "Yellow nutsedge [20]", "result": 20, "unit": "%"}, {"measurement": "control of resistant broadleaf weeds", "setting": "[21]", "result": "outstanding control"}]}, {"smiles": "C#CCN1C(=O)COc2cc(F)c(-c3nn(C)c(C(F)(F)F)c3Cl)cc21", "note": "[Compound 446, 6-(4-Chloro-1-methyl-5-(trifluoromethyl)-1H-pyrazol-3-yl)-7-fluoro-4-(2-propynyl)-2H-1,4-benzoxazin-3-(4H)-one]", "values": [{"measurement": "inhibition at 1120 g/ha", "setting": "Annual bluegrass [1]", "result": 100, "unit": "%"}, {"measurement": "inhibition at 1120 g/ha", "setting": "Barnyardgrass [2]", "result": 80, "unit": "%"}, {"measurement": "inhibition at 1120 g/ha", "setting": "Cocklebur [3]", "result": 100, "unit": "%"}, {"measurement": "inhibition at 1120 g/ha", "setting": "Downy Brome [4]", "result": 90, "unit": "%"}, {"measurement": "inhibition at 1120 g/ha", "setting": "Indian Mustard [5]", "result": 100, "unit": "%"}, {"measurement": "inhibition at 1120 g/ha", "setting": "Morningglory [6]", "result": 100, "unit": "%"}, {"measurement": "inhibition at 1120 g/ha", "setting": "Seedling johnsongrass [7]", "result": 80, "unit": "%"}, {"measurement": "inhibition at 1120 g/ha", "setting": "Velvetleaf [8]", "result": 90, "unit": "%"}, {"measurement": "inhibition at 1120 g/ha", "setting": "Wild buckwheat [9]", "result": 100, "unit": "%"}, {"measurement": "inhibition at 1120 g/ha", "setting": "Yellow nutsedge [10]", "result": 60, "unit": "%"}, {"measurement": "inhibition at 1120 g/ha", "setting": "Annual bluegrass [11]", "result": 100, "unit": "%"}, {"measurement": "inhibition at 1120 g/ha", "setting": "Barnyardgrass [12]", "result": 100, "unit": "%"}, {"measurement": "inhibition at 1120 g/ha", "setting": "Cocklebur [13]", "result": 100, "unit": "%"}, {"measurement": "inhibition at 1120 g/ha", "setting": "Downy Brome [14]", "result": 100, "unit": "%"}, {"measurement": "inhibition at 1120 g/ha", "setting": "Indian Mustard [15]", "result": 100, "unit": "%"}, {"measurement": "inhibition at 1120 g/ha", "setting": "Morningglory [16]", "result": 100, "unit": "%"}, {"measurement": "inhibition at 1120 g/ha", "setting": "Seedling johnsongrass [17]", "result": 90, "unit": "%"}, {"measurement": "inhibition at 1120 g/ha", "setting": "Velvetleaf [18]", "result": 100, "unit": "%"}, {"measurement": "inhibition at 1120 g/ha", "setting": "Wild buckwheat [19]", "result": 100, "unit": "%"}, {"measurement": "inhibition at 1120 g/ha", "setting": "Yellow nutsedge [20]", "result": 40, "unit": "%"}, {"measurement": "control of resistant broadleaf weeds", "setting": "[21]", "result": "outstanding control"}]}]}
